# Source: US12083105B2, “Compositions and methods for treating adult-onset neuronal ceroid lipofuscinosis (Kufs disease)” (CORNELL UNIVERSITY, priority 2020, dated 2024)
# Test system: CSPα^WT, CSPα^L115R and CSPα^L116Δ
# Experiment: Fe—S cluster disruption of purified recombinant CSPα oligomers (SDS-PAGE, immunoblotting)
# Assay type: biochemical
# Details: purified recombinant proteins; 1 mM, 2 h at room temperature; FIG. 2B
# Procedure: FIGS. 2A-2F show dissociation of CSPα ANCL mutant protein oligomers by acid treatment. […] Purified recombinant CSPα^WT, CSPα^L115R CSPα^L116Δ, and SSPα proteins were incubated with either 1 mM L-cysteine for 2 h at room temperature (+L-Cys) or 0.1 N HCl for 20 min at room temperature (+HCl). The proteins were separated by SDS-PAGE, and resultant gels were subjected to immunoblotting using anti-CSPα antibody. A representative immunoblot is shown. Key: Mono=monomer; Oligo=oligomers of higher mass than dimer. Mono=monomer; Oligo=oligomers; grey arrowheads=possible dimer and tetramer. […] The proteins were subjected to increasing trypsin concentrations (0, 0.01, 0.05, 0.1, and 1.0 mg/ml) for 20 min at 4° C., followed by immediate inhibition of trypsin with addition of phenylmethylsulfonyl fluoride (PMSF) to 1 mM. After proteolysis was stopped, CSPα oligomers were disrupted with 0.1 N HCl for 20 min at room temperature, followed by 10 min of boiling in Laemmli sample buffer. The resultant proteins were separated by SDS-PAGE, and subjected to immunoblotting using anti-CSPα antibody. […] The proteins were first incubated with 0.1 N HCl for 20 min at room temperature and then neutralized with 1 M sodium cacodylate to pH 7.0. Limited proteolysis was then performed using increasing trypsin concentrations (0, 0.01, 0.05, 0.1, and 1.0 mg/ml) for 20 min at 4° C. […]
structure (smiles),measurement,value
N[C@@H](CS)C(=O)O [L-cysteine],"disassembly of oligomers of CSPα^WT, CSPα^L115R and CSPα^L116Δ",no significant effect
